Here are results for 15 compounds from US20240131007A1, “METHODS AND COMPOSITIONS FOR PICORNAVIRUS ANTI-VIRAL AGENTS” (University of Connecticut, priority 2022, published 2024).

“Also recorded” adds a separate entry of the source. Where a name gives a salt, the structure may show the parent alone. Read-outs that look alike come from different tables or passages of the source.

One series has as its system EV-A71. Briefly: CPE inhibition assay (Cell Titer Glo) against EV-A71 in Vero cells. The following applies: for Selectivity Index: CC50/IC50; for anti-viral activity of analogs of Compound T3 (luminescence above 3SD cutoff): single concentration 25 μM; for anti-viral activity (luminescence above 3SD cutoff): single concentration 50 μM; for selectivity index: from IC50 and CC50. It counts as cell-based, Enterovirus A71.

The nature of series [1]: Cytotoxicity assay (Cell Titer Glo). The conditions noted are these: African green monkey, CC50 (μM), Vero cells.
For series [2], the target named is T1, EV-A71 Δ2C^116-329 (Human enterovirus 71, UniProt Q66478).
T1 construct: EV-A71 Δ2C (amino acids 116-329) was designed with; made in house; host or cells: E. coli Rosetta 2(DE3) pLysS, pMALc5x vector
T1 sequence (Q66478 1227-1440, stated change not applied): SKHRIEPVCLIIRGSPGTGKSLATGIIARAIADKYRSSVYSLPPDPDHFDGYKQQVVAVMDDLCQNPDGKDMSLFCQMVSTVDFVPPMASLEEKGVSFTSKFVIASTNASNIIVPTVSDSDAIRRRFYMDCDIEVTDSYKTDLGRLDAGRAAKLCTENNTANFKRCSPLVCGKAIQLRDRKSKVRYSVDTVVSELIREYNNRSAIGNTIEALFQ
Nature of the series: biochemical. The following applies: for inhibition of the ATPase function of Δ2C^116-329 (absorbance below 3SD cutoff): single concentration 50 μM. The format is biochemical.

For series [3], the target named is T2, EV-A71 Δ2C^116-329 (2C ATPase) (Enterovirus A71, UniProt B9VUU3).
T2 construct: Ni-NTA and SEC purified
T2 sequence (B9VUU3 1227-1440, stated change not applied): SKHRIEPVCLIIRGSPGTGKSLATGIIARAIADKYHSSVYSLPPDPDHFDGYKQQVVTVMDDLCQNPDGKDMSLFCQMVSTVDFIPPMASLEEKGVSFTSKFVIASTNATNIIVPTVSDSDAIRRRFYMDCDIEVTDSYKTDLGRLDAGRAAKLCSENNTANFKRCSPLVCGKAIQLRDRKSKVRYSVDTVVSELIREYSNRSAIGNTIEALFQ
Nature of the series: 2C ATPase inhibition assay (colorimetric malachite green, dose response). It counts as biochemical.

The next series in a line: in vitro. The conditions noted are these: African green monkey.
Series [4] relates to EV-A71-TN (VP1-T237N mutant). The format is cell-based, Enterovirus A71. The conditions noted are these: 500 μM compound; Vero cells.
The next series deals with wild type EV-A71 (WT). The format is cell-based. The conditions noted are these: 500 μM compound; Vero cells.
Another series concerns Vero cells. Briefly: Cytotoxicity assay (Cell Titer Glo). The conditions noted are these: for CC50: Vero cells.
Series [5] addresses EV-A71 Δ2C^116-329. The conditions noted are these: previously observed; cited from earlier work.
The mark [6] stands for this setting: Enterovirus A, EVA71, Table 12, Scaffold 3, EV-A71, Vero cells, read-out: IC50.
Where [7] appears, read: Enterovirus A, EVA71, EV-A71, Vero cells, read-out: IC50 for inhibition of virus-induced CPE.
The mark [8] stands for this setting: Enterovirus A, EVA71, Table 7, EV-A71, Vero cells, read-out: IC50.

In the case of `O=C(C=Cc1ccco1)Nc1ccc(-c2nc3ccccc3[nH]2)cc1` [Compound 20, N-[4-(1H-benzimidazol-2-yl)phenyl]-3-(2-furyl)acrylamide], the IC50 was determined as 5.41 µM in the series on EV-A71 (Enterovirus A, EVA71, Table 10, Scaffold 1, EV-A71, Vero cells, read-out: IC50) and 18.1 µM against EV-A71 Δ2C^116-329 [2]. Further, the “Selectivity Index” value in the series on EV-A71 (Table 10, Scaffold 1) is >73.94. In addition, in [1] (Table 10, Scaffold 1), the CC50 at 3 days was > 400 µM.

In the case of `CC(=O)Nc1ccc2[nH]c(-c3ccc(Br)o3)nc2c1` [Compound 52, N-[2-(5-bromo-2-furyl)-1H-benzimidazol-5-yl]acetamide], the 50% inhibitory concentration (IC50) with EV-A71 (setting [6]) came to 7.1 µM. Further, the “Selectivity Index” value in the series on EV-A71 (Table 12, Scaffold 3) was determined as 1.30. In series [1] (Table 12, Scaffold 3), this compound came in with a CC50 at 3 days of 9.2 µM.

As for `Cc1ccc(-c2nc3cc(NC(=O)c4cccs4)ccc3[nH]2)o1` [Compound 55, N-[2-(5-methyl-2-furyl)-1H-benzimidazol-5-yl]-2-thiophenecarboxamide], in the series with EV-A71 (setting [6]), the IC50 is > 25 µM. For the same compound, in series [1] (Table 12, Scaffold 3), the CC50 at 3 days was > 400 µM.

On to `O=C(Nc1ccc2[nH]c(-c3cccs3)nc2c1)c1cccs1` [Compound 56, N-[2-(2-thienyl)-1H-benzimidazol-5-yl]-2-thiophenecarboxamide], for which the half-maximal inhibitory concentration (IC50) with EV-A71 (setting [6]) was 20 µM. Also, in the series with EV-A71 (Table 12, Scaffold 3), the “Selectivity Index” value was 6.17. Moreover, in the series on EV-A71 (EV-A71, Vero cells), the “anti-viral activity of analogs of Compound T3 (luminescence above 3SD cutoff)” value is “have activity”. Moreover, in series [1] (Table 12, Scaffold 3), the CC50 at 3 days turned out to be 123 µM.

As for `O=C(Nc1ccc2[nH]c(-c3ccco3)nc2c1)c1cccs1` [Compound 57, N-[2-(2-furyl)-1H-benzimidazol-5-yl]-2-thiophenecarboxamide], the concentration for half-maximal inhibition (IC50) in the series on EV-A71 (Enterovirus A, EVA71, Table 8, virus-induced CPE, EV-A71, Vero cells, read-out: IC50) is 2.75 µM. In addition, the “Selectivity Index” value in the series on EV-A71 (Table 8) amounted to 3.09; in the series on EV-A71 (Table 12, Scaffold 3), 3.09. Besides, the “anti-viral activity of analogs of Compound T3 (luminescence above 3SD cutoff)” value in the series with EV-A71 (EV-A71, Vero cells) is “have activity”. The CC50 at 3 days in series [1] (Table 8) came to 8.5 µM; in series [1] (Table 12, Scaffold 3), 8.5 µM.

Turning to `Cc1ccc2nc(-c3cccc(NC(=O)c4ccco4)c3)[nH]c2c1` [Compound 63, N-[3-(6-methyl-1H-benzimidazol-2-yl)phenyl]-2-furamide], the IC50 with EV-A71 (Enterovirus A, EVA71, Table 13, Scaffold 4, EV-A71, Vero cells, read-out: IC50) stood at 24.8 µM. Further, the “Selectivity Index” value in the series on EV-A71 (Table 13, Scaffold 4) is given as 5.28. The same compound returned a CC50 at 3 days in series [1] (Table 13, Scaffold 4) of 131 µM.

For `OC(COC(c1ccc(F)cc1)c1ccc(F)cc1)Cn1cnc2cc(F)c(F)cc21` (centres unmarked) [Compound 108, 1-[bis(4-fluorophenyl)methoxy]-3-(5,6-difluoro-1H-1,3-benzodiazol-1-yl)propan-2-ol], in the series with EV-A71 (EV-A71, Vero cells), the “anti-viral activity (luminescence above 3SD cutoff)” value is reported as “did not show activity above the threshold value”. In series [3], this compound showed a 50% inhibitory concentration (IC50) of 57.3 µM. Moreover, on EV-A71 Δ2C^116-329 [2], the “inhibition of the ATPase function of Δ2C^116-329 (absorbance below 3SD cutoff)” value is reported as “inhibited 2C ATPase; also recorded: inhibited the ATPase function”.

With `Nc1nc(N)nc(COC(=O)CCc2c(-c3ccc(F)cc3)[nH]c3ccc(F)cc23)n1` [Compound 111, (4,6-diamino-1,3,5-triazin-2-yl)methyl 3-[5-fluoro-2-(4-fluorophenyl)-1H-indol-3-yl]propanoate], the IC50 in the series with EV-A71 (setting [7]) turned out to be 44.7 µM; in the series with EV-A71 (setting [8]), 44.7 µM; in series [3] it was 7.5 µM. The “Selectivity Index” value in the series on EV-A71 (Table 7) is on record as 9.44. In the series with EV-A71, this compound registered a selectivity index of 9.44. Moreover, the “anti-viral activity (luminescence above 3SD cutoff)” value with EV-A71 (EV-A71, Vero cells) is recorded as “inhibited EV-A71”. Besides, the CC50 at 3 days in the series “in vitro” (CC50) and in the series “in vitro” (CC50 (μM)) was 422 µM in each case. The “inhibition of the ATPase function of Δ2C^116-329 (absorbance below 3SD cutoff)” value on EV-A71 Δ2C^116-329 [2] is recorded as “inhibited 2C ATPase; also recorded: inhibited the ATPase function”.

For `O=c1nc(C=Cc2cn(Cc3ccccc3Cl)c3ccccc23)cc(C(F)(F)F)[nH]1` [Compound 139, 4-(2-{1-[(2-chlorophenyl)methyl]-1H-indol-3-yl}ethenyl)-6-(trifluoromethyl)-1,2-dihydropyrimidin-2-one], the “anti-viral activity (luminescence above 3SD cutoff)” value in the series on EV-A71 (EV-A71, Vero cells) is “did not show activity above the threshold value”. Further, half-maximal inhibition in [3] (IC50) required 71.3 µM. The “inhibition of the ATPase function of Δ2C^116-329 (absorbance below 3SD cutoff)” value at EV-A71 Δ2C^116-329 [2] is “inhibited 2C ATPase; also recorded: inhibited the ATPase function”.

Take `O=C(Cn1nc2c(Oc3cccc(F)c3)nccn2c1=O)Nc1cccc(Cl)c1` [Compound 167, N-(3-chlorophenyl)-2-[8-(3-fluorophenoxy)-3-oxo-2H,3H-[1,2,4]triazolo[4,3-a]pyrazin-2-yl]acetamide]: the values for the 50% inhibitory concentration (IC50) (in the series on EV-A71 (setting [7]); with EV-A71 (setting [8]); in [3]) were 59.4 µM, 59.4 µM and 61.2 µM, respectively. In addition, the “Selectivity Index” value in the series on EV-A71 (Table 7) is listed as >16.8. Moreover, the selectivity index in the series on EV-A71 is > 16.8. Moreover, the “anti-viral activity (luminescence above 3SD cutoff)” value in the series with EV-A71 (EV-A71, Vero cells) is “inhibited EV-A71”. Also, the “decrease in viral titer vs DMSO” value is ~5 fold in series [4] and ~100 fold in the series on wild type EV-A71 (WT). Also, the CC50 at 3 days in the series “in vitro” (CC50) is > 400 µM; in “in vitro” (CC50 (μM)), > 1000 µM. The “inhibition of the ATPase function of Δ2C^116-329 (absorbance below 3SD cutoff)” value at EV-A71 Δ2C^116-329 [2] was “inhibited 2C ATPase; also recorded: inhibited the ATPase function”.

Turning to `Cc1ccc2[nH]c(-c3ccc(NC(=O)c4ccco4)cc3)nc2c1` [Compound T3, N-[4-(5-methyl-1H-benzimidazol-2-yl)phenyl]-2-furamide], the IC50 in the series with EV-A71 (setting [7]) was determined as 2.9 µM; in the series on EV-A71 (Enterovirus A, EVA71, Table 6, EV-A71, Vero cells, read-out: IC50) it was 2.9 µM. Further, the “Selectivity Index” value in the series on EV-A71 (Table 6) is listed as >68.97. Moreover, in the series with EV-A71, the selectivity index is listed as > 68.9. The CC50 at 3 days in [1] (Table 6) is > 200 µM. In the series on Vero cells (up to 200 μM), the “toxicity to Vero cells” value is recorded as “no toxicity”.

As to `Cc1[nH]c2ccc(Br)cc2c1CCN` [Compound T5, [2-(5-bromo-2-methyl-1H-indol-3-yl)ethyl]aminehydrochloride], in the series on EV-A71 (Table 6, EV-A71, Vero cells, read-out: IC50), the 50% inhibitory concentration (IC50) is 103 µM. This compound had a CC50 with Vero cells (Table 6) of 61.6 µM.

For `Cl.N=C(N)N` [GnHCl, Guanidinium hydrochloride, reference compound], the half-maximal inhibitory concentration (IC50) with EV-A71 (read-out: IC50 for inhibition of EV-A71) came out at 140 µM; on EV-A71 Δ2C^116-329 [2] (read-out: IC50 for ATPase inhibition) it was 83600 µM. In addition, the “IC50 for inhibition of the ATPase activity of 2C” value at EV-A71 Δ2C^116-329 [5] is recorded as “millimolar range”.

Compound “N-[4-(1H-benzimidazol-2-yl)phenyl]-2-(3-4-phenylthio)acetamide [Compound 22]” yielded a CC50 in the series with Vero cells (Table 10, Scaffold 1) of 761 µM.

For the compound “N-[4-(5-methyl-1H-benzimidazol-2-yl)phenyl]-2-(3-7-phenylthio)acetamide [Compound 42]”, in the series with EV-A71 (Table 10, Scaffold 1, EV-A71, Vero cells, read-out: IC50), the IC50 was 6.99 µM. Besides, the CC50 in the series on Vero cells (Table 10, Scaffold 1) is 684 µM.
